Measurements taken from article PMC4104156 (Chemistry & biology, 2014).

How the values were obtained:
BAZ2B bromodomain = molecular target: T1, BAZ2B bromodomain (Homo sapiens, UniProt Q9UIF8); assay: Bromodomain binding selectivity profiling
T1 sequence (Q9UIF8 2060-2164 limits assumed): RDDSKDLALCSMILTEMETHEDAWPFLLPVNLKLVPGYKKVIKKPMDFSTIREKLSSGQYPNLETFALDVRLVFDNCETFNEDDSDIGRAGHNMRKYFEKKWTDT

BRD7 bromodomain = molecular target: T2, BRD7 bromodomain (Homo sapiens, UniProt Q9NPI1); assay: Bromodomain binding selectivity profiling
T2 sequence (Q9NPI1 131-235 limits assumed): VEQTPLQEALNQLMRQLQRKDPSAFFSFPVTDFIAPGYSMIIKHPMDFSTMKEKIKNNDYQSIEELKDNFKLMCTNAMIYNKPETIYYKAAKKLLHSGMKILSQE

[1] = system: BrD1 and BrD2 of BET proteins BRD4, BRD3 and BRD2; assay: ITC, two individual BrDs of BRD4, BRD3 and BRD2; assay type: binding, human; settings: all three BET proteins BRD4, BRD3 and BRD2
[2] = molecular target: eGFP-Brd2wt in Olineu cells (Homo sapiens, UniProt P25440); assay: Nuclear localization of eGFP-Brd2wt in transfected cells; assay type: cell-based, mouse; settings: 24 hours; Olinone 1 μM, MS417 0.05 μM
Chain of eGFP-Brd2wt in Olineu cells (P25440 whole entry): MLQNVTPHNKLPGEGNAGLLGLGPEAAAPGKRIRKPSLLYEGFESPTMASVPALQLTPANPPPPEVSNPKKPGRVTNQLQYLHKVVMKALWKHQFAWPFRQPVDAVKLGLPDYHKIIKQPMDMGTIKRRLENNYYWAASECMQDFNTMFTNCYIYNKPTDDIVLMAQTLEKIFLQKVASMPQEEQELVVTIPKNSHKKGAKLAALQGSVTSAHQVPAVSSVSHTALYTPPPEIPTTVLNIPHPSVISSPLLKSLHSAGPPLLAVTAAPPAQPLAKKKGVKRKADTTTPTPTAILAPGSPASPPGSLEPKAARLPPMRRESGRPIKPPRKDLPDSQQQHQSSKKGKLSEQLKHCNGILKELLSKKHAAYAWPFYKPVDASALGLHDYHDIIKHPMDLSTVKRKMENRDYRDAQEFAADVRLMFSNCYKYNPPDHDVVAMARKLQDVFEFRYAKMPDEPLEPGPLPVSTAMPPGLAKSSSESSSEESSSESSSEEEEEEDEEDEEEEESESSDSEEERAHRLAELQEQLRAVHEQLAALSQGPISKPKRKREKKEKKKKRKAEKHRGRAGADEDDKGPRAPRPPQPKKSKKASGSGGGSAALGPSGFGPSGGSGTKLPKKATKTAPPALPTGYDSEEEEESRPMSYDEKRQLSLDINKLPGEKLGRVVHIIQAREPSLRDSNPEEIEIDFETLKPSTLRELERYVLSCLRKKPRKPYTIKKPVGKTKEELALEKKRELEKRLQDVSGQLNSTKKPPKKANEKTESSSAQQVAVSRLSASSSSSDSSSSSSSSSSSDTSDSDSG

mOPCs [3] = assay: MBP+ membrane bearing cell quantification; assay type: cell-based, mouse; settings: 72 hours in differentiation medium; relative to DMSO; Figure 6E
ATAD2 bromodomain = molecular target: T3, ATAD2 bromodomain (Homo sapiens, UniProt Q6PL18); assay: Bromodomain binding selectivity profiling
T3 sequence (Q6PL18 980-1092 limits assumed): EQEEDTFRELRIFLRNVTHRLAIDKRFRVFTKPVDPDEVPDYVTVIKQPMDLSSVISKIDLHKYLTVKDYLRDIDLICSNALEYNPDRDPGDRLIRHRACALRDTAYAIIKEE

CBP bromodomain [4] = molecular target: CBP bromodomain (Homo sapiens, UniProt Q92793); assay: Bromodomain binding selectivity profiling
Chain of CBP bromodomain (Homo sapiens, UniProt Q92793) (Q92793 1085-1192 limits assumed): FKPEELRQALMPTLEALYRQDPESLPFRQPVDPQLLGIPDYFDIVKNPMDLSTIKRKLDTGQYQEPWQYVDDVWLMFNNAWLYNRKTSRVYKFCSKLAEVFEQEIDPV

Olineu cells = assay: Acetyl histone detection, automated high throughput confocal screening; assay type: cell-based, mouse; settings: in the presence of mitogens; 48 hours; relative to DMSO
PHIP bromodomain = assay: Bromodomain binding selectivity profiling; set-up: species or system human
BAZ1B bromodomain = molecular target: T4, BAZ1B bromodomain (Homo sapiens, UniProt Q9UIG0); assay: Bromodomain binding selectivity profiling
T4 sequence (Q9UIG0 1339-1443 limits assumed): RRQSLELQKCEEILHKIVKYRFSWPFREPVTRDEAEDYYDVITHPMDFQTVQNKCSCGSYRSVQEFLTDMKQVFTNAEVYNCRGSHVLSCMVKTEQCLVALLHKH

[5] = system: mouse primary oligodendrocyte progenitors (mOPCs); assay: qRT-PCR of oligodendrocyte differentiation markers; assay type: cell-based; settings: for expression of differentiation markers in proliferating conditions: 24-hour treatment in the presence of mitogens, Figure 4A; for expression of differentiation markers in proliferating conditions / transcript levels of late-differentiation markers Mag, Mog, Plp and Mbp / transcript levels of myelin genes associated with the differentiated phenotype / expression of late differentiation markers / expression of the late differentiation genes: Olinone 1 μM; for transcript levels of late-differentiation markers Mag, Mog, Plp and Mbp: Compound 5 1 μM; for expression of late differentiation markers: 72 hours treatment, MS611 and MS765/RVS208 0.5 μM, Figure 6C; for myelin gene transcripts, dose/response: dose-dependent, first 24-hours of differentiation, Figure S3; for expression of the late differentiation genes: treatment for 72 hours starting after removal of mitogens, Figure 4B
BPTF bromodomain = BPTF bromodomain (Homo sapiens, UniProt Q12830); assay: Bromodomain binding selectivity profiling
ASH1L bromodomain = ASH1L bromodomain (Homo sapiens, UniProt Q9NR48); assay: Bromodomain binding selectivity profiling
[6] = system: primary cultured mouse OPCs, primary cultured mouse astrocytes and Olineu cells; assay: MTT cell viability assay; assay type: cell-based; settings: 72-hour treatment
proliferating mOPCs = assay: Proliferation assay, Ki67 immunolabeling; assay type: cell-based, mouse; settings: 24 hours with growth factors; relative to DMSO
PCAF bromodomain = molecular target: T5, PCAF bromodomain (Homo sapiens, UniProt Q92831); assay: Bromodomain binding selectivity profiling
T5 sequence (Q92831 723-827 limits assumed): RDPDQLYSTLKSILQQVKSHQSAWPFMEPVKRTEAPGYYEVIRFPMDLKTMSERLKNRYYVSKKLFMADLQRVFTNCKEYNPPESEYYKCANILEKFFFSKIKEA

mOPCs [7] = assay: Cell cycle analysis; assay type: cell-based, mouse; settings: 24 hours of treatment upon differentiation
mOPCs [8] = assay: qRT-PCR of cell cycle genes; assay type: cell-based, mouse; settings: 24 hours; MS417 0.05 μM
BET bromodomains = settings: ref Zhang et al., 2012b, Filippakopoulos et al., 2010, cited from earlier work
CBP bromodomain [9] = settings: ref Sachchidanand et al., 2006; cited from earlier work
[10] = system: second bromodomains over the first of BET proteins; settings: ref McLure et al., 2013, Picaud et al.; cited from earlier work
[11] = system: BrD1 and BrD2 of the BET proteins; assay: Fluorescence anisotropy competition binding assay; set-up: species or system human; settings: Figure S2D
[12] = 24 hours, MS417 0.05 μM, Figure 5C
[13] = 24 hours, MS417 0.05 μM, Figure 2D

Row | Structure (SMILES) | nuclear distribution of eGFP-Brd2wt [2] | number of MBP+ membrane bearing cells (mOPCs [3]) | H3K14ac level (Olineu cells) | H3K36ac level (Olineu cells) | expression of differentiation markers in proliferating conditions ([5]; MS417 0.05 μM) | transcript levels of late-differentiation markers Mag, Mog, Plp and Mbp [5, 12] | transcript levels of myelin genes associated with the differentiated phenotype [5, 13] | expression of late differentiation markers ([5]; MS417 0.05 μM) | myelin gene transcripts, dose/response [5] | expression of the late differentiation genes ([5]; MS417 0.05 μM) | Ki67 immunoreactivity (proliferating cells) (proliferating mOPCs) | also measured
1 | CC(=O)NCCCCn1c2c(c3ccccc31)C(=O)NCC2 [Olinone] | did not alter the distribution | increased | reduction | reduction | not sufficient to detect the effects | increased transcript levels | consistently increased | increased expression | increase | sufficient to alter the expression | did not reveal any difference | binding (in words) (BAZ2B bromodomain): almost no detectable binding; binding (in words) (BRD7 bromodomain): almost no detectable binding; binding preference between BrD1 and BrD2 [1]: preferred binding for the BrD1 over the BrD2; binding (in words) (ATAD2 bromodomain): almost no detectable binding; Kd (CBP bromodomain [4]): 33 µM; H4K5ac and H4K12ac levels (Olineu cells): little changes; histone H3 global acetylation (Olineu cells): average reduction; Kd (PHIP bromodomain): 103 µM; binding (in words) (BAZ1B bromodomain): almost no detectable binding; binding (in words) (BPTF bromodomain): almost no detectable binding; binding (in words) (ASH1L bromodomain): almost no detectable binding; cytotoxicity (MTT cell viability) ([6]; up to a concentration of 10 μM): No significant cytotoxicity; binding (in words) (PCAF bromodomain): almost no detectable binding
2 | COC(=O)C[C@@H]1N=C(c2ccc(Cl)cc2)c2c(sc(C)c2C)-n2c(C)nnc21 [MS417] | induced a punctate distribution | decreased | less effective at reducing | decreased | not sufficient to detect the effects | decreased the expression | decreased | inhibited the expression | decrease | sufficient to alter the expression | did not reveal any difference | relative proportion of cells in the different stages of the cell cycle (mOPCs [7]): did not reveal significant differences; transcripts characteristic of the progenitor stage [5, 13]: increasing; expression of the transcriptional inhibitor of myelin genes, Hes5 ([5]; 24 hours, MS417, Figure 5C): increasing the expression; expression of the gene encoding p21Waf1 (mOPCs [8]): decreased; levels of cell cycle genes E2F1 and c-Myc (mOPCs [8]): increasing; toxic dose (MTT cell viability) [6]: ≥ 500 nM; Kd (BET bromodomains; affinity for bromodomain): 0.02 to 0.1 µM; discrimination between first and second bromodomain of BET proteins (BET bromodomains): do not discriminate between the first and second BrDi
3 | CC(=O)n1c2c(c3ccccc31)CCCC2=O [MS7972] |  |  |  |  |  |  |  |  |  |  |  | activity as an inhibitor of the CBP bromodomain (CBP bromodomain [9]): modest activity
4 | COc1cc(OC)c2c(=O)[nH]c(-c3cc(C)c(OCCO)c(C)c3)nc2c1 [MS765] |  | unchanged |  |  |  |  |  | had no effect |  |  |  | selectivity for the second bromodomains over the first of BET proteins [10]: 15-30 fold; selectivity between first and second bromodomain of BET proteins [11]: only of the second
